Results reported in patent publication US20240238318A1, “L-FUCOSE AND ANTI-ANDROGEN RECEPTOR THERAPY FOR TREATMENT OF CANCER” (H. LEE MOFFITT CANCER CENTER AND RESEARCH INSTITUTE, INC., priority 2021, published 2024).

Test system: tumor growth and metastasis
Test: dietary L-fucose supplementation in mouse tumor models
Assay type: in vivo
Text: Global fucosylation is reduced during progression in human melanomas (UEA1 fucose-binding lectin staining analysis of tumor microarray (TMA; n=˜300 patients)) via an ATF2-mediated transcriptional repression of fucokinase (FUK). However, AR transcriptionally upregulates Fucosyltransferase 4 (FUT4) expression via binding to the ARE motif in FUT4 promoter (FIG. 3). Additionally, the global tumor fucosylation is more pronounced in males relative to females (FIG. 4). […] Furthermore, the AR-FUT4 axis facilitates melanoma invasion via disrupting N-Cadherin/catenin junction complexes (FIG. 6). […] Thus, FUT4 is required for androgen-stimulated melanoma cell viability and motility (FIG. 7).

C[C@H](O)[C@@H](O)[C@@H](O)[C@H](O)C=O [L-fucose]
block of tumor growth and metastasis: > 50%
